Biological target: T1, tyrosinase activity in mouse melanoma B16-F10 cells (Mus musculus, UniProt P11344)
T1 construct: Mouse melanoma B16-F10 cells were used; endogenous in cells; host or cells: mouse melanoma B16-F10 cells
T1 sequence (P11344 19-533): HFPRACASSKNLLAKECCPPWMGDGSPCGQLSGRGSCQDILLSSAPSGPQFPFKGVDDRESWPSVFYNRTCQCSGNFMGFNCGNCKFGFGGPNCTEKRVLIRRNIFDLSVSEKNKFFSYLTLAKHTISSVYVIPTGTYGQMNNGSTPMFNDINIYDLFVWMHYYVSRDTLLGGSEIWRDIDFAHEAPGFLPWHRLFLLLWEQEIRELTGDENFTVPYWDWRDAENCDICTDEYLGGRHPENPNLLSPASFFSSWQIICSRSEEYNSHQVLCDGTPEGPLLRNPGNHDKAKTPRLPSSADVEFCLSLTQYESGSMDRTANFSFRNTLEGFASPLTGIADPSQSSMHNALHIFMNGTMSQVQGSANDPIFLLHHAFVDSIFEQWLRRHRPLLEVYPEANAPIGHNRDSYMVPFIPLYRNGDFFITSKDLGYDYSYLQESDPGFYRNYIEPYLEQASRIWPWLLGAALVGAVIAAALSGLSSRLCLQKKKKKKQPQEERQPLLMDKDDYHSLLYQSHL
Test: Inhibition of tyrosinase (melanogenesis induction firstly, then administration), L-DOPA conversion
Assay type: cell-based
Conditions: 250 ppm arbutin, 6 ppm resveratrol, 8 ppm curcumin, 8 ppm compositions; 48 hours after α-MSH; absorbance 405 nm within 60 minutes

activity of tyrosinase compared with control group (in words) | Compound
reduced the activity of tyrosinase | COc1cc(/C=C/C(=O)CC(=O)/C=C/c2ccc(O)c(OC)c2)ccc1O [curcumin]
reduced the activity of tyrosinase | OC[C@H]1O[C@@H](Oc2ccc(O)cc2)[C@H](O)[C@@H](O)[C@@H]1O [arbutin]
